Experimental data published in article PMC5218480 (PLoS ONE, 2017).

Tested on: MV-4-11 cells
Assay: Gene expression microarray analysis (Affymetrix PrimeView) and GSEA
Type: cell-based, human
Design: RFU PODN (11730768_x_at) / Fold change /veh PODN (11730768_x_at) / RFU LINC00158 (11744669_a_at) / Fold change /veh LINC00158 (11744669_a_at) / RFU DUSP10 (11751237_a_at) / Fold change /veh DUSP10 (11751237_a_at) / RFU ID3 (11757404_x_at) / Fold change /veh ID3 (11757404_x_at) / RFU PLEKHG5 (11737974_s_at) / Fold change /veh PLEKHG5 (11737974_s_at) / RFU LRRC4B (11730491_at) / Fold change /veh LRRC4B (11730491_at) / RFU GIMAP4 (11747438_a_at) / Fold change /veh GIMAP4 (11747438_a_at) / RFU KRT8 (11758183_x_at) / Fold change /veh KRT8 (11758183_x_at) / RFU CNN1 (11734310_a_at) / Fold change /veh CNN1 (11734310_a_at) / RFU VPS37D (11726825_at) / Fold change /veh VPS37D (11726825_at) / RFU C10orf10 (11716522_x_at) / Fold change /veh C10orf10 (11716522_x_at) / RFU KIR2DL2 /// KIR2DL4 /// KIR2DL5A /// KIR2DL5B /// KIR2DS1 /// KIR2DS2 /// KIR2DS3 /// KIR2DS4 /// KIR3DL3 /// KIR3DL3 /// KIR3DS1 (11738374_at) / Fold change /veh KIR2DL2 /// KIR2DL4 /// KIR2DL5A /// KIR2DL5B /// KIR2DS1 /// KIR2DS2 /// KIR2DS3 /// KIR2DS4 /// KIR3DL3 /// KIR3DL3 /// KIR3DS1 (11738374_at) / RFU C1QL1 (11718748_at) / Fold change /veh C1QL1 (11718748_at) / RFU TMPRSS4 (11747572_a_at) / Fold change /veh TMPRSS4 (11747572_a_at) / RFU HAMP (11756126_x_at) / Fold change /veh HAMP (11756126_x_at) / RFU RNFT2 (11725882_a_at) / Fold change /veh RNFT2 (11725882_a_at) / RFU NR4A2 (11747474_a_at) / Fold change /veh NR4A2 (11747474_a_at) / RFU ABCC12 (11746883_a_at) / Fold change /veh ABCC12 (11746883_a_at) / RFU TMEM136 (11760407_x_at) / Fold change /veh TMEM136 (11760407_x_at) / RFU CLDN22 /// WWC2 (11732394_at) / Fold change /veh CLDN22 /// WWC2 (11732394_at) / RFU HLA-DPB1 (11760878_x_at) / Fold change /veh HLA-DPB1 (11760878_x_at) / RFU SPINT1 (11716480_a_at) / Fold change /veh SPINT1 (11716480_a_at) / RFU GAP43 (11754022_s_at) / Fold change /veh GAP43 (11754022_s_at) / RFU A4GNT (11735810_at) / Fold change /veh A4GNT (11735810_at) / RFU PRB3 (11715151_x_at) / Fold change /veh PRB3 (11715151_x_at) / RFU TUBB4B (11761932_at) / Fold change /veh TUBB4B (11761932_at) / RFU CAPN14 (11732068_a_at) / Fold change /veh CAPN14 (11732068_a_at) / RFU TMCC2 (11721928_a_at) / Fold change /veh TMCC2 (11721928_a_at) / RFU IRGQ (11745062_a_at) / Fold change /veh IRGQ (11745062_a_at) / RFU FAM174B (11720279_a_at) / Fold change /veh FAM174B (11720279_a_at) / RFU TMPRSS4 (11748680_a_at) / Fold change /veh TMPRSS4 (11748680_a_at) / RFU FAM212B (11763350_a_at) / Fold change /veh FAM212B (11763350_a_at) / RFU PLEKHG5 (11743358_a_at) / Fold change /veh PLEKHG5 (11743358_a_at) / RFU ZSCAN30 (11745921_a_at) / Fold change /veh ZSCAN30 (11745921_a_at) / RFU CMKLR1 (11741424_a_at) / Fold change /veh CMKLR1 (11741424_a_at) / RFU LOC101060620 /// MAPK8IP1 (11723275_at) / Fold change /veh LOC101060620 /// MAPK8IP1 (11723275_at) / RFU SPTSSB (11747773_x_at) / Fold change /veh SPTSSB (11747773_x_at) / RFU PRSS12 (11739890_at) / Fold change /veh PRSS12 (11739890_at) / RFU BIN1 (11741810_x_at) / Fold change /veh BIN1 (11741810_x_at) / RFU WNT11 (11732464_a_at) / Fold change /veh WNT11 (11732464_a_at) / RFU C10orf10 (11716521_a_at) / Fold change /veh C10orf10 (11716521_a_at) / RFU C5orf56 (11738089_at) / Fold change /veh C5orf56 (11738089_at) / RFU CYB561 (11721691_x_at) / Fold change /veh CYB561 (11721691_x_at) / RFU ANKRD19P (11752326_a_at) / Fold change /veh ANKRD19P (11752326_a_at) / RFU OR2T12 /// OR2T33 /// OR2T8 (11738714_s_at) / Fold change /veh OR2T12 /// OR2T33 /// OR2T8 (11738714_s_at) / RFU VCAN (11748164_a_at) / Fold change /veh VCAN (11748164_a_at) / RFU JSRP1 (11732532_at) / Fold change /veh JSRP1 (11732532_at) / RFU KRTAP10-11 (11738290_x_at) / Fold change /veh KRTAP10-11 (11738290_x_at) / RFU MYO3A (11730013_a_at) / Fold change /veh MYO3A (11730013_a_at) / RFU EBF3 (11725865_a_at) / Fold change /veh EBF3 (11725865_a_at) / RFU CAMK2N1 (11719241_x_at) / Fold change /veh CAMK2N1 (11719241_x_at) / RFU C5orf56 (11738088_a_at) / Fold change /veh C5orf56 (11738088_a_at) / RFU OLFML3 (11715873_a_at) / Fold change /veh OLFML3 (11715873_a_at) / RFU LOC100653217 /// NTM (11731650_a_at) / Fold change /veh LOC100653217 /// NTM (11731650_a_at) / RFU MAPK11 (11762145_a_at) / Fold change /veh MAPK11 (11762145_a_at) / RFU FIZ1 (11724087_x_at) / Fold change /veh FIZ1 (11724087_x_at) / RFU OASL (11726364_x_at) / Fold change /veh OASL (11726364_x_at) / RFU SOX15 (11748057_x_at) / Fold change /veh SOX15 (11748057_x_at) / RFU CD79A (11719716_a_at) / Fold change /veh CD79A (11719716_a_at) / RFU HIST1H1D (11736915_at) / Fold change /veh HIST1H1D (11736915_at) / RFU CASKIN2 (11723855_a_at) / Fold change /veh CASKIN2 (11723855_a_at) / RFU LOC730098 (11760151_x_at) / Fold change /veh LOC730098 (11760151_x_at) / RFU OR4N2 (11742367_at) / Fold change /veh OR4N2 (11742367_at) / RFU PRRT2 (11749266_a_at) / Fold change /veh PRRT2 (11749266_a_at) / RFU SNX32 (11753110_a_at) / Fold change /veh SNX32 (11753110_a_at) / RFU CDHR5 (11726645_a_at) / Fold change /veh CDHR5 (11726645_a_at) / RFU RCAN1 (11760418_a_at) / Fold change /veh RCAN1 (11760418_a_at) / RFU FAM167A (11723789_a_at) / Fold change /veh FAM167A (11723789_a_at) / RFU FAM26E (11764081_at) / Fold change /veh FAM26E (11764081_at) / RFU ISYNA1 (11749810_s_at) / Fold change /veh ISYNA1 (11749810_s_at) / RFU ACY1 (11761880_at) / Fold change /veh ACY1 (11761880_at) / RFU 11764098_at / Fold change /veh 11764098_at / RFU SAMD14 (11745864_x_at) / Fold change /veh SAMD14 (11745864_x_at) / RFU NPB (11741838_a_at) / Fold change /veh NPB (11741838_a_at) / RFU TMPRSS6 (11731388_a_at) / Fold change /veh TMPRSS6 (11731388_a_at) / RFU KRTAP10-2 (11738614_at) / Fold change /veh KRTAP10-2 (11738614_at) / RFU ARHGAP8 /// PRR5-ARHGAP8 (11727945_x_at) / Fold change /veh ARHGAP8 /// PRR5-ARHGAP8 (11727945_x_at) / RFU KRTAP5-7 /// NADSYN1 (11734609_at) / Fold change /veh KRTAP5-7 /// NADSYN1 (11734609_at) / RFU RASL12 (11751679_a_at) / Fold change /veh RASL12 (11751679_a_at) / RFU CDKN2B (11736163_a_at) / Fold change /veh CDKN2B (11736163_a_at) / RFU PRF1 (11729649_at) / Fold change /veh PRF1 (11729649_at) / RFU, ZNF638 /// ZNF638-IT1 / Fold change vs veh, ZNF638 /// ZNF638-IT1 / RFU, PANK3 / Fold change vs veh, PANK3 / RFU, SH3YL1 / Fold change vs veh, SH3YL1 / RFU, ZEB2 / Fold change vs veh, ZEB2 / RFU, NRIP1 / Fold change vs veh, NRIP1 / RFU, PTTG1IP / Fold change vs veh, PTTG1IP / RFU, CAPN2 / Fold change vs veh, CAPN2 / RFU, MED14 / Fold change vs veh, MED14 / RFU, SNORA58 / Fold change vs veh, SNORA58 / RFU, C1orf63 / Fold change vs veh, C1orf63 / RFU, LRRFIP1 / Fold change vs veh, LRRFIP1 / RFU, NDUFAF7 / Fold change vs veh, NDUFAF7 / RFU, SLC12A2 / Fold change vs veh, SLC12A2 / RFU, IBTK / Fold change vs veh, IBTK / RFU, ESF1 / Fold change vs veh, ESF1 / Fold change vs veh, TMEM50B / RFU, TAOK1 / Fold change vs veh, TAOK1 / RFU, ACBD3 / Fold change vs veh, ACBD3 / RFU, TMA16 / Fold change vs veh, TMA16 / RFU, RWDD3 / Fold change vs veh, RWDD3 / RFU, BCAT1 / Fold change vs veh, BCAT1 / RFU, EDEM3 / Fold change vs veh, EDEM3 / RFU, TMEM33 / Fold change vs veh, TMEM33 / RFU, WDR75 / Fold change vs veh, WDR75 / RFU, AHCTF1 / Fold change vs veh, AHCTF1 / RFU, TFRC / Fold change vs veh, TFRC / RFU, ZDHHC17 / Fold change vs veh, ZDHHC17 / RFU, NOM1 / Fold change vs veh, NOM1 / RFU, ARL8B / Fold change vs veh, ARL8B / RFU, ZBTB11 / Fold change vs veh, ZBTB11 / RFU, TAMM41 / Fold change vs veh, TAMM41 / RFU, KIAA1704 /// LOC100996395 / Fold change vs veh, KIAA1704 /// LOC100996395 / RFU, ING1 / Fold change vs veh, ING1 / RFU, TRMT61B / Fold change vs veh, TRMT61B / RFU, FUBP3 / Fold change vs veh, FUBP3 / RFU, TP53 / Fold change vs veh, TP53 / RFU, TNKS2 / Fold change vs veh, TNKS2 / RFU, ZFP14 / Fold change vs veh, ZFP14 / RFU, ACTR2 / Fold change vs veh, ACTR2 / RFU, PPP3R1 / Fold change vs veh, PPP3R1 / RFU, PIK3R1 / Fold change vs veh, PIK3R1 / RFU, HNRNPA1 / Fold change vs veh, HNRNPA1 / RFU, RNF170 / Fold change vs veh, RNF170 / RFU, ZNF28 / Fold change vs veh, ZNF28 / RFU, RNGTT / Fold change vs veh, RNGTT / RFU, OGT / Fold change vs veh, OGT / RFU, BRD1 / Fold change vs veh, BRD1 / RFU, MARS / Fold change vs veh, MARS / RFU, ZNF655 / Fold change vs veh, ZNF655 / RFU, FAHD1 / Fold change vs veh, FAHD1 / RFU, BDP1 / Fold change vs veh, BDP1 / RFU, LRRCC1 / Fold change vs veh, LRRCC1 / RFU, ARID1A / Fold change vs veh, ARID1A / RFU, ZNF146 / Fold change vs veh, ZNF146 / RFU, ZNF330 / Fold change vs veh, ZNF330 / RFU, GPN3 / Fold change vs veh, GPN3 / RFU, C9orf123 / Fold change vs veh, C9orf123 / RFU, N4BP2L2 / Fold change vs veh, N4BP2L2 / RFU, ARFIP1 / Fold change vs veh, ARFIP1 / RFU, FAM179B / Fold change vs veh, FAM179B / RFU, BCL10 / Fold change vs veh, BCL10 / RFU, UHRF1BP1L / Fold change vs veh, UHRF1BP1L / RFU, BET1 / Fold change vs veh, BET1 / RFU, CNOT2 / Fold change vs veh, CNOT2 / RFU, ZNF268 / Fold change vs veh, ZNF268 / Fold change vs veh, ZNF507 / RFU, DGCR2 / Fold change vs veh, DGCR2 / RFU, WDSUB1 / Fold change vs veh, WDSUB1 / Fold change vs veh, HSP90B1 /// MIR3652 / RFU, ADSS / Fold change vs veh, ADSS / RFU, GK / Fold change vs veh, GK / RFU, ZNF148 / Fold change vs veh, ZNF148 / RFU, TAF9 / Fold change vs veh, TAF9 / RFU, SLC1A5 / Fold change vs veh, SLC1A5 / RFU, SLMO2 / Fold change vs veh, SLMO2 / RFU, ABCC4 / Fold change vs veh, ABCC4 / RFU, LOC101060439 /// RAP1B / Fold change vs veh, LOC101060439 /// RAP1B / RFU, RFX7 / Fold change vs veh, RFX7 / RFU, GTPBP10 / Fold change vs veh, GTPBP10 / RFU, CNEP1R1 / Fold change vs veh, CNEP1R1 / RFU, BIVM-ERCC5 /// ERCC5 / Fold change vs veh, BIVM-ERCC5 /// ERCC5 / RFU, ILF3 / Fold change vs veh, ILF3 / RFU 11762660_at / Fold change /veh 11762660_at / RFU VCAN (11757783_s_at) / Fold change /veh VCAN (11757783_s_at) / RFU DDX43 (11728927_at) / Fold change /veh DDX43 (11728927_at) / RFU KRT8 (11758188_x_at) / Fold change /veh KRT8 (11758188_x_at) / RFU NKD1 (11759106_at) / Fold change /veh NKD1 (11759106_at) / RFU SRD5A1 (11742802_a_at) / Fold change /veh SRD5A1 (11742802_a_at) / RFU TPSAB1 /// TPSB2 (11721975_s_at) / Fold change /veh TPSAB1 /// TPSB2 (11721975_s_at) / RFU GSTM3 (11746129_a_at) / Fold change /veh GSTM3 (11746129_a_at) / RFU IL23R (11737362_x_at) / Fold change /veh IL23R (11737362_x_at) / RFU TMEM51 (11727254_a_at) / Fold change /veh TMEM51 (11727254_a_at) / RFU PIWIL2 (11732686_x_at) / Fold change /veh PIWIL2 (11732686_x_at) / RFU ORM1 (11744905_x_at) / Fold change /veh ORM1 (11744905_x_at) / RFU CCDC152 (11743942_at) / Fold change /veh CCDC152 (11743942_at) / RFU ECM1 (11717891_a_at) / Fold change /veh ECM1 (11717891_a_at) / RFU IL23R (11748794_a_at) / Fold change /veh IL23R (11748794_a_at) / RFU TNFAIP8L3 (11732012_x_at) / Fold change /veh TNFAIP8L3 (11732012_x_at) / RFU MBOAT4 (11741988_at) / Fold change /veh MBOAT4 (11741988_at) / RFU 11764193_at / Fold change /veh 11764193_at / RFU TMEM53 (11763286_at) / Fold change /veh TMEM53 (11763286_at) / RFU MAGEB2 (11727129_at) / Fold change /veh MAGEB2 (11727129_at) / RFU TMEM200A (11744735_a_at) / Fold change /veh TMEM200A (11744735_a_at) / RFU CCDC152 (11751479_a_at) / Fold change /veh CCDC152 (11751479_a_at) / RFU FAM211A (11726209_a_at) / Fold change /veh FAM211A (11726209_a_at) / RFU RGS16 (11746705_a_at) / Fold change /veh RGS16 (11746705_a_at) / RFU VCAN (11755009_s_at) / Fold change /veh VCAN (11755009_s_at) / RFU RHOB (11743442_s_at) / Fold change /veh RHOB (11743442_s_at) / RFU RGS16 (11720943_a_at) / Fold change /veh RGS16 (11720943_a_at) / RFU RGS16 (11720944_at) / Fold change /veh RGS16 (11720944_at) / RFU, VPS4B / Fold change vs veh, VPS4B / RFU, CREB1 / Fold change vs veh, CREB1 / RFU, DNAJC13 / Fold change vs veh, DNAJC13 / RFU, GNAQ / Fold change vs veh, GNAQ / RFU, CDK5R1 / Fold change vs veh, CDK5R1 / RFU, ZRANB3 / Fold change vs veh, ZRANB3 / RFU, CUL4A / Fold change vs veh, CUL4A / RFU, CCNY / Fold change vs veh, CCNY / RFU, UFL1 / Fold change vs veh, UFL1 / RFU, COG3 / Fold change vs veh, COG3 / RFU, DIAPH2 / Fold change vs veh, DIAPH2 / RFU, SKA2 / Fold change vs veh, SKA2 / RFU, AFF3 / Fold change vs veh, AFF3 / RFU, LMF1 / Fold change vs veh, LMF1 / RFU, IPO11 / Fold change vs veh, IPO11 / RFU, DFFB / Fold change vs veh, DFFB / RFU, FOXP1 / Fold change vs veh, FOXP1 / RFU, CARD8 / Fold change vs veh, CARD8 / RFU, STRN3 / Fold change vs veh, STRN3 / RFU, ADK / Fold change vs veh, ADK / RFU, RASSF2 / Fold change vs veh, RASSF2 / RFU, WIPF1 / Fold change vs veh, WIPF1 / RFU, LARP1B / Fold change vs veh, LARP1B / RFU, RASA1 / Fold change vs veh, RASA1 / RFU, RB1 / Fold change vs veh, RB1 / RFU, PPFIA1 / Fold change vs veh, PPFIA1 / RFU, MAT2A / Fold change vs veh, MAT2A / RFU, CCT5 / Fold change vs veh, CCT5 / RFU, WDR92 / Fold change vs veh, WDR92 / RFU, CUX1 / Fold change vs veh, CUX1 / RFU, TTC7A / Fold change vs veh, TTC7A / RFU, TMEM135 / Fold change vs veh, TMEM135 / RFU, DEPTOR / Fold change vs veh, DEPTOR / RFU, CPM / Fold change vs veh, CPM / RFU, DNAJB6 / Fold change vs veh, DNAJB6 / RFU, CACNA2D3 / Fold change vs veh, CACNA2D3 / RFU, DTX4 / Fold change vs veh, DTX4 / RFU, TFCP2 / Fold change vs veh, TFCP2 / RFU, GMCL1 /// GMCL1P1 / Fold change vs veh, GMCL1 /// GMCL1P1 / RFU, AEBP2 / Fold change vs veh, AEBP2 / RFU, SNHG1 /// SNORD22 /// SNORD25 /// SNORD26 /// SNORD27 /// SNORD28 /// SNORD29 /// SNORD31 / Fold change vs veh, SNHG1 /// SNORD22 /// SNORD25 /// SNORD26 /// SNORD27 /// SNORD28 /// SNORD29 /// SNORD31 / Fold change (Aza/veh), C12orf56 (ProbeSet 11735607_a_at) / Fold change (ACY-1035/veh), C12orf56 (ProbeSet 11735607_a_at) / Fold change (Aza/veh), FGFR1OP (ProbeSet 11751329_s_at) / Fold change (ACY-1035/veh), FGFR1OP (ProbeSet 11751329_s_at) / Fold change (Aza/veh), VPS36 (ProbeSet 11739960_a_at) / Fold change (ACY-1035/veh), VPS36 (ProbeSet 11739960_a_at) / RFU SYPL1 (11715823_x_at) / Fold change /veh SYPL1 (11715823_x_at) / RFU IGFBP7 (11715501_s_at) / Fold change /veh IGFBP7 (11715501_s_at) / RFU REEP3 (11722064_at) / Fold change /veh REEP3 (11722064_at) / RFU IGLL1 (11728026_x_at) / Fold change /veh IGLL1 (11728026_x_at): dose or concentration left out as unconfirmed
Conditions: MV-4-11 cells, 48 hours

In the case of `Nc1ccc(-c2cccs2)cc1NC(=O)c1ccc2c(c1)cc(C1CC1)n2CCN1CCOCC1` [ACY-1035], the “RFU KIR2DL2 /// KIR2DL4 /// KIR2DL5A /// KIR2DL5B /// KIR2DS1 /// KIR2DS2 /// KIR2DS3 /// KIR2DS4 /// KIR3DL3 /// KIR3DL3 /// KIR3DS1 (11738374_at)” value is reported as 11.07 RFU.
